The text below walks through data of patent publication US4710505A, “Asymmetric heterocyclic ester derivatives of 1,4-dihydropyridine-3,5-dicarboxylic acids” (Societe de Recherches Industrielles (S.O.R.I.), priority 1985, dated 1987).

Like-named read-outs stand apart in the source and are kept apart here.

One data set deals with rabbit aorta. Nature of the data set: Relaxing effect on isolated rabbit aorta contracted (depolarized) by KCl. The conditions noted are these: Oryctolagus cuniculus; rabbit aorta depolarized by 127 mM KCl; read-out: ED50 (dose causing a 50% relaxation of the precontracted arteries). The procedure: I. RELAXING EFFECT ON ISOLATED RABBIT AORTA CONTRACTED BY KCl
The thoracic aortae of male rabbits are removed, cut into narrow strips and placed under tension in an oxygenated survival medium. The contractions of these arteries, the amplitude of which is measured using a myograph, are induced by a 127 mM solution of KCl [R. Towart et al., Arzneim.-Forsch./Drug Res. 32, 338-346 (1982)]. The compounds studied are dissolved in a mixture of anhydrous ethanol and double distilled water (1:1) v/v, the percentage of ethanol in the baths being less than or equal to 0.3% at the end of the experiment. When the contraction plateau is reached, the compound is added to the medium in increasing doses every 15 minutes.

The test system of data set [1] is spontaneously hypertensive rats. Put plainly: Antihypertensive activity in spontaneously hypertensive rats, oral administration. The class given is in vivo. The conditions noted are these: 30 mg/kg; for change in vivo at 30 mg/kg: Rattus norvegicus. How it is done:
Spontaneously hypertensive rats aged between 16 and 20 weeks are used. The systolic pressure is measured by plethysmography and the heart rate is obtained from the pressure graph. The compounds studied are administered orally.

The test system is the same in data set [2]. Put plainly: Antihypertensive activity in spontaneously hypertensive rats, intravenous administration. The class given is in vivo. An excerpt:
2. Intravenous administration
Spontaneously hypertensive rats aged between 16 and 20 weeks are used. They are anesthetized with diethyl ether, a cannula is inserted into the caudal artery to measure the arterial pressure and a catheter is inserted into the right jugular vein to administer the compounds as described previously (L. S. Watson and L. T. Ludden, New Antihypertensive Drugs, pages 87-96, Spectrum Publication, Inc., 1976).
Each curve C relates to the control group receiving only the vehicle and each curve T relates to the treated group [n (number of animals per group)=4-7]. The said groups are compared either by analysis of variance, if the variances are homogenous (Bartlett's homocedasticity test), or by Kruskall-Wallis's non-parametric test (the statistically significant results being represented as follows:
FIGS. 1-6 relate to the variation in systolic pressure, expressed in mm Hg (1 mm Hg corresponds approximately to 1.333×10^2 Pa), as a function of time, expressed in minutes, and FIGS. 1a-6a relate to the variation in diastolic pressure, also expressed in mm Hg, as a function of time, expressed in minutes, for the treated groups (curves T) compared with the corresponding control groups (curves C), the doses of products administered being as follows:
FIGS. 2 and 2a: nicardipine at 30 μg/kg i.v.,
FIGS. 3 and 3a: Example 2 at 30 μg/kg i.v.,
FIGS. 4 and 4a: Example 7 at 100 μg/kg i.v.,
FIGS. 5 and 5a: Example 8 at 300 μg/kg i.v., and
FIGS. 6 and 6a: Example 11 at 30 and 100 μg/kg i.v. (curves T1 and T2).

Another data set deals with anesthetized dogs. Put plainly: Hemodynamic effects on anesthetized dogs, intraduodenal administration. The format is in vivo, Mongrel dogs. The following applies: 0.5 mg/kg. How it is done: III. HEMODYNAMIC EFFECTS ON ANESTHETIZED DOGS Mongrel dogs are anesthetized with pentobarbital sodium (25 mg/kg i.v.). Each animal is placed under artificial respiration and a catheter is introduced into the aorta to measure the arterial pressure. The outputs of the aorta (O. Aor.), right femoral artery (O. Fem.) and left coronary artery (descending part) (O. Cor.) are measured continuously by means of electromagnetic rings. The total peripheral resistances (T.P.R.) are also calculated. […]

A further data set is described as follows: in vivo. The following applies: rat, intravenous, male Wistar rats weighing 300 g. The procedure:
The LD50 was determined by intravenous administration to male Wistar rats weighing 300 g.

The mark [3] stands for this setting: versus nicardipine and nifedipine.

Take `COC(=O)C1=C(C)NC(C)=C(C(=O)OCC2COC3(CCCCC3)O2)C1c1cccc([N+](=O)[O-])c1` (centres unmarked) [Example 2, methyl (1,4-dioxaspiro[4,5]decan-2-yl)methyl 1,4-dihydro-2,6-dimethyl-4-(3-nitrophenyl)pyridine-3,5-dicarboxylate]: the EC50 in the data set on rabbit aorta was determined as 50 nM. Moreover, in data set [1], the “duration of the effect, Systolic pressure” value is above 24 h. The change in vivo at 30 mg/kg in data set [1] (read-out: % variation Heart rate) was 24.5%. Further, the change in vivo at 30 mg/kg in data set [1] (read-out: % variation Systolic pressure) is -45.4 ± 6.3%. Further, the “drop in systolic and diastolic pressures (in words)” value in data set [2] (30 μg/kg i.v., versus nicardipine 30 μg/kg and nifedipine 300 μg/kg i.v.) was “greater drop in systolic and diastolic pressures than nicardipine at the same dose and nifedipine at 10 times the dose”. For the same molecule, in data set [2] (single i.v. dose, Ex. 2 30, Ex. 7 100, Ex. 8 300, Ex. 11 30 and 100 μg/kg, versus nicardipine and nifedipine), the “duration of the antihypertensive effect (in words)” value was “notably longer than that of nicardipine and nifedipine”. For the same molecule, in the data set on anesthetized dogs, the “% variation D.P. (diastolic pressure)” value is listed as -41.2%, the “% variation O. Aor. (output of the aorta)” value is given as “+40.2%”, the “% variation O. Cor. (output of left coronary artery)” value is listed as “+89.5%” and the “% variation O. Fem. (output of right femoral artery)” value was “+180.5%”. In the data set with anesthetized dogs, the “duration of the effect, D.P. (diastolic pressure)” value was determined as 240 min; the “duration of the effect, O. Aor. (output of the aorta)” value worked out at 300 min; the “duration of the effect, O. Cor. (output of left coronary artery)” value is 300 min; the “duration of the effect, O. Fem. (output of right femoral artery)” value came out at 300 min. In addition, in the data set on anesthetized dogs (calculated), the “% variation T.P.R. (total peripheral resistances)” value is on record as -53.4% and the “duration of the effect, T.P.R. (total peripheral resistances)” value is 300 min. In the data set with anesthetized dogs (setting [3]), the “cardiac, femoral and coronary outputs (in words)” value is “increased for a longer time and to a greater extent”; the “drop in total peripheral resistances (in words)” value is “greater drop in total peripheral resistances than nicardipine and nifedipine”; the “duration of drop in total peripheral resistances (in words)” value is “considerably longer”. Also, the LD50 in “in vivo” stood at 27.9 mg/kg.

A word on the LD50: it is the dose expected to kill half of the subjects tested.
